In brackets after ≈: the same amount, converted by molar mass.
Tests used:
BMDM [1] = assay: Viability of BMDM after 48 h treatment; assay type: cell-based
Description: Immune cells system as macrophages and dendritic cells are responsible for the initiation of immune responses, and are the prime target for immunostimulatory drugs. To verify that the HA-RES conjugate is not toxic for immune cells, BMDM were treated with increasing concentrations of RES or HA-RES for 48 h.
The inventors also tested the effect of BEX and its HA conjugate on the viability of BMDM by exposing them to increasing concentration ranging from (0.39-50 μM).

BMDM [2] = assay: BMDM polarization (M1/M2 marker expression); assay type: cell-based; conditions: 48 hr, vs untreated cells
Description: To further elucidate the effect of HA-RES and HA-BEX and their combination on macrophage phenotyping the inventors studied their effect on macrophage polarization. BMDMs were treated with different concentrations of RES and HA-RES for 48 hr. (FIG. 6A)
The expression of several markers associated with M1 and M2 phenotypes was evaluated.

[3] = test system: B16F10-Luc melanoma cells; assay: Cytotoxicity study on B16F10-Luc cells; assay type: cell-based; conditions: 48 h
Description: (§1) 5×10^3 B16F10-Luc cells were seeded in 96 well plates and allowed to adhere overnight. For establishment for a coculture, B16F10 cells were cocultured with BMDM at a ratio of 1:10 (5×10^3 B16F10: 5×10^4 BMDM per well). The next day, the media was aspirated and replaced with increasing concentration of the free drugs, combination and the HA-conjugates with equivalent free drug concentrations and cells were incubated with the drug solutions for 48 h after which the treatment was aspirated and replaced with 0.5% Xenolight-D-luciferin potassium salt solution in complete DMEM. Finally, cellular viability was assessed by reading the luminescence of the solution from each well after 5 min using BioTek plate reader. Untreated cells were used as controls.

[4] = test system: B16F10-Luc melanoma cells cocultured with BMDM; assay: Cytotoxicity study, B16F10-Luc cocultured with BMDM; assay type: cell-based; conditions: coculture with BMDM; compared with B16F10 alone
Description: as §1

A431 cells = assay: In vitro cytotoxicity on A431 cells; assay type: cell-based; conditions: Homo sapiens, A-431; 48 h, alamar blue
Description: A431 cells were cultured in DMEM media supplemented with 10% FBS, 1% Pen Strep. The cells were passaged 3-4 times prior to setting up the assay. […] Cells were cultured in a humidified incubator maintained at 37° C. and 5% C02 (Thermo scientific, USA). A431 Cells (5×10^3 in 100 ul in complete DMEM) were seeded in 96 well plates and allowed to adhere overnight. The next day, cell culture media was aspirated and replaced with the different treatments. The cells were incubated with the drug solutions for 48 hr after which the treatment was aspirated and replaced with 10% alamar blue (AB) solution in complete DMEM and incubated for an additional 3.5 h in the dark at 37° C. […] Finally, cellular viability was assessed by reading the florescence of the solution from each well at λex=560 nm and λem=590 nm. […] Baseline fluorescence levels from wells without cells were subtracted from each data (Dose response curves were fit to each drug and/or polymer drug conjugate with the median effect model^[28]. For combination treatment, synergy was quantified with the combination index^[29]

[5] = test system: primary human fibroblasts; assay: Cell viability study in primary human fibroblasts; assay type: cell-based; conditions: increasing concentrations, 48 h, relative to the untreated control
Description: Primary human fibroblast (seeded at density 5,000 cells/well) and primary human keratinocytes (at density 2,000 cells/well) were used for the cytotoxicity studies in vitro. The culture media used for the keratinocytes was keratinocyte serum free medium supplemented with L-glutamine, EGF and BPE while that for fibroblasts was Dulbecco's Modified Eagle's Medium-high glucose supplemented with 2% penicillin/streptomycin and 5% FBS. Cells were incubated in a humidified incubator under 5% CO2 at 37° C. After 24 h, 50 μL of the media were withdrawn and replaced by 50 ul of increasing concentrations of each treatment reaching a final volume of 100 μL in the well. Cells were incubated for 48 h under standard cell culture conditions after which cell viability was assessed by AB assay as previously described.

[6] = background statement; cited from earlier work

## C=C(c1ccc(C(=O)O)cc1)c1cc2c(cc1C)C(C)(C)CCC2(C)C [BEX, Bexarotene]
BMDM [1]; 50 uM
  viability of BMDM: significant decrease in the cells viability
BMDM [1]; all concentrations tested up to 25 uM (range 0.39-50 μM)
  viability of BMDM: didn't alter the viability
BMDM [2]
  expression of CD206 (M2 marker): significant reduction
[3]; Mus musculus, B16-F10, luminescence viability
  IC50: 25 µM
[4]
  IC50 in the presence of MAC: same IC50
A431 cells
  IC50: 60.3 µM
[5]
  viability of primary human dermal fibroblasts: did not significantly affect the cell viability
[6]
  aqueous solubility: ~10 µM (≈ 3.48 µg/mL)

## CCOCc1nc2c(N)nc3ccccc3c2n1CC(C)(C)O [RES, Resiquimod]
BMDM [1]; increasing concentrations, 48 h, all concentrations tested
  viability of BMDM: marked increase in cell viability
[3]; B16F10-Luc alone
  cytotoxic effect on melanoma cells: negligible cytotoxic effect

## O=C(CCCCCCC(=O)Nc1ccccc1)NO [VOR, Vorinostat]
[5]
  viability of primary human dermal fibroblasts: did not significantly affect the cell viability
